Consider 3 compounds from patent US20150344457A1, “METHODS OF INHIBITING PRMT5” (EPIZYME, INC., priority 2012, published 2015).

Assay [1] relates to Z-138 cells. In words: Z-138 Proliferation Assay (Cell Titer Glo, 5 days). Type of assay: cell-based. To be noted: Homo sapiens, Table D-2. Summed up: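 Exponentially growing Z-138 cells (10,000 cells/ml) in RPMI 1640 with 10% FBS are exposed to nine-point 3-fold dilutions (final top concentration 20 μM, 0.2% DMSO) for 5 days at 37° C. Viability is measured as ATP by CellTiter-Glo luminescence. The 50% inhibitory concentration comes from a 4-parameter fit.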

In assay [2] the test system is Z-138 cells. In words: Z-138 Methylation Assay (In Cell Western for symmetric di-methyl arginine and DNA content). Type of assay: cell-based. To be noted: Homo sapiens, Table D-2, read-out: ICW EC50. Summed up: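 Symmetric di-methyl arginine signal (800 nm) ratioed to DNA content (700 nm) by In Cell Western after four days of compound treatment of Z-138 suspension cells seeded at 50,000 cells/mL. Percent inhibition set between DMSO and 3 μM reference wells; IC50 curves from triplicates.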

What is called pEC50 is the negative decadic logarithm of the EC50, by convention in mol/L.

SMILES strings stand for the structures. pEC50: −log10 of the molar value.

As to `N#Cc1ccc(-c2cccc(OCC(O)CN3CCc4ccccc4C3)c2)cc1` (stereo not drawn) [Compound D94], the negative logarithm of the EC50 (pEC50) was 4.40 to 5.00 in assay [1] and 5.00 to 6.00 in assay [2].
The like results for `Oc1cccc(-c2cccc(OCC(O)CN3CCc4ccccc4C3)c2)c1` (stereo not drawn) [Compound D95] were, in that order, 4.40 to 5.00 and 5.00 to 6.00.
Regarding `N#Cc1ccccc1-c1cccc(OCC(O)CN2CCc3ccccc3C2)c1` (stereo not drawn) [Compound D93], the pEC50 in assay [1] was 4.40 to 5.00; in assay [2], 5.00 to 6.00.
